In one data set the target is T1, human CB1 (Homo sapiens, UniProt P21554).
T1 construct: HEK-293T-CB1 (stably transfected with CB1 cDNA); expressed in transfected cells; host or cells: HEK-293T
Put plainly: CB1 antagonism assay (CRE-Luc reporter) in HEK-293T-CB1 cells stimulated with WIN-55,212-2. Type of data set: cell-based. The conditions noted are these: 15 min preincubation, then WIN-55,212-2 for 6 h; CRE-Luc luciferase; Figure 1. As to the method: To investigate the biological activities of the CBD enantiomers on CB1 and TRPV1 receptors were performed functional assays in both HEK-293T-CB1 and HEK-293T-TRPV1 cells, which overexpress human CB1 and TRPV-1 receptors respectively. HEK-293T-CB1 (stably transfected with CB1 cDNA) were maintained in supplemented DMEM medium containing 10% FBS and 1% antibiotics penicillin/streptomycin (DMEM complete medium) at 37°C in a humidified atmosphere of 5% CO2. The cells were incubated in 24-well plates (1x10^5 cell/ml) and transiently transfected with 0,1 µg/ml of the plasmid CRE-Luc that contains six consensus cAMP responsive elements (CRE) linked to firefly luciferase. Transient transfections were performed with Rotifect (Carl Roth GmbH, Karlsruhe, Germany) according to the manufacturer's instructions and harvested 24 h after transfection. For CB1 antagonistic activity the transfected cells were incubated with increasing concentrations of the CBD enantiomers for 15 min and then stimulated with WIN-55, 212-2 (CB1 agonist), during 6 h and then luciferase activity measured in the cell lysates. […]

Another data set relates to α-SMA. The data set is described as follows: α-SMA expression by Western blot in TGFβ-treated NIH-3T3 cells (myofibroblast differentiation). Type of data set: cell-based. The conditions noted are these: 1 h preincubation, TGFβ 10 ng/ml 24 h; Figure 5. The method, then: It is well known that TGFβ drives the conversion of fibroblasts into myofibroblasts, and the accumulation of myofibroblasts cells in fibrotic skin is a hallmark of SSc. Myofibroblasts are characterized by the novo synthesis of α-smooth muscle actin (a-SMA) fibers. To investigate α-SMA expression NIH-3T3 cells were preincubated with either (+)CBD or (-)CBD for 1 h and then treated with TFGβ (10 ng/ml) for 24 h. Cells were washed with PBS and proteins extracted in 50 µl of lysis buffer (50 mM Tris-HCl pH 7.5, 150 mM NaCl, 10% glycerol and 1% NP-40) supplemented with 10mM NaF, 1 mM Na3VO4, 10 µg/ml leupeptine, 1 µg/ml pepstatin and aprotinin, and 1 µl/ml PMSF saturated. Protein concentration was determined by the Bradford assay (Bio-Rad, CA, USA) and 30 µg of proteins were boiled at 95 °C in Laemmli buffer and electrophoresed in 10% SDS/PAGE gels. Separated proteins were transferred to PVDF membranes (20V for 30 min) and blocked in TBS solution containing 0.1% Tween 20 and 5% non-fat dry milk for 1 hour at room temperature. Immunodetection of specific proteins was carried out by incubation with primary antibody against α-SMA (1:500; sc-32251, Santa Cruz). After washing membranes, horseradish peroxidase-conjugated secondary antibody was added and detected by chemiluminescence system (GE Healthcare Europe GmbH). […]

The next data set has as its system BLM-induced fibrosis. Put plainly: Bleomycin (BLM) mouse model of skin fibrosis, histology and observation. The class given is in vivo, Mice. The method, then: The bleomycin (BLM) mice model is widely used to evaluate potential anti-inflammatory and anti-fibrotic therapies for SSc. BLM causes inflammation in a short period of time, characterized by elevation of proinflammatory cytokines and growth factors that peak around day 14 of BLM exposure. […] The inflammatory model of SSc was used to study (-)CBD preventive effects. Fibrosis was induced by daily subcutaneous administration of BLM (50 µg/mice; 100 µl) (Mylan, Barcelona, Spain) for 3 weeks. Treatments were administered in parallel and consisted of daily intraperitoneal (i.p.) injections of (-)CBD (20 mg/kg), or vehicle (4% DMSO, 6.2% Tween20, saline; 100 µl). Subcutaneous injections of 0.9% NaCl served as a control. Mice were acclimated to manipulators for a week previously to the experiments in order to reduce stress and allow the detection of subtle changes in behavior by researchers. […] Mice were sacrificed by cervical dislocation and the back skin was removed and processed for histological examination or was frozen for further analysis.
Mast cells degranulation as well as macrophages and lymphocyte accumulation are the hallmark of BLM-induced fibrosis and play important roles during the inflammatory phase of SSc. Mast cells degranulation can be identified by toluidine blue staining and macrophage accumulation by staining with a mAb that identifies F4/80^+ cells. Skin sections ([…]) were stained toluidine blue. For immunohistochemical detection of macrophages F4/80 (1:50; MCA497, Bio-Rad) antibody was used. Slides were developed with diaminobenzidine chromogen (Merck Millipore) and counterstained in Harris hematoxylin. Slides were photographed, digitalized using a Leica DFC420c camera and analyzed using Image J software.

For the next data set, the system named is anandamide hydrolysis. The note with it: Bisogno et al. 2001; cited from earlier work.
Another data set concerns the target TRPV-1 (Homo sapiens, UniProt Q8NER1). Put plainly: Capsaicin-induced intracellular calcium mobilization (Fura-2) in HEK-293T-TRPV1 cells. Type of data set: cell-based. Also noted: expressed in transfected cells; host or cells: HEK-293T. The note with it: capsaicin 1 µM; Fura-2 AM; Figure 2A. As to the method: Next, the effect of (+)CBD and (-)CBD on TRPV-1 activity was investigated. TRPV-1 is an ionotropic receptor that upon activation by a specific agonist such as capsaicin mobilize intracellular calcium in TRPV-1 expressing cells. Moreover, TRPV-1-induced calcium exerts cytotoxicity in non-neuronal cells overexpressing this receptor. To explore the effect of (+)CBD on calcium mobilization HEK-293T-TRPV1 cells were cultured in 96-well plates (10^3 cells/well) and loaded with Fura 2 acetyoxymethyl ester (Fura-2 AM; 8 µM) (Molecular Probes, Carlsbad, CA) in Dulbecco's modified Eagle's medium (containing 110 mg/l pyruvate) supplemented with 10% FBS and incubated (40 min, 37°C, 5% CO2). The cells were preincubated with (+)CBD and after 15 sec treated with capsaicin (1µM). Changes in intracellular free calcium concentration (intracellular [Ca^2+]free) were measured by digital microscopy equipped with ratiometric recording of single cells. (BD Pathway 855 Bioimager). The field of cells was monitored by sequential dual excitation, 352 and 380 nm, and the analysis of the image ratios used methods described previously to calculate changes in intracellular [Ca^2+]free. The ratio images were acquired every 6 s. At the end of experiments, the cells were exposed to ionomycin (30 s, 1 µM) to obtain a maximal response.

The mark [1] stands for this setting: BLM 3 weeks, 20 mg/kg i.p. daily, Figure 8.

T1 sequence (P21554 whole entry): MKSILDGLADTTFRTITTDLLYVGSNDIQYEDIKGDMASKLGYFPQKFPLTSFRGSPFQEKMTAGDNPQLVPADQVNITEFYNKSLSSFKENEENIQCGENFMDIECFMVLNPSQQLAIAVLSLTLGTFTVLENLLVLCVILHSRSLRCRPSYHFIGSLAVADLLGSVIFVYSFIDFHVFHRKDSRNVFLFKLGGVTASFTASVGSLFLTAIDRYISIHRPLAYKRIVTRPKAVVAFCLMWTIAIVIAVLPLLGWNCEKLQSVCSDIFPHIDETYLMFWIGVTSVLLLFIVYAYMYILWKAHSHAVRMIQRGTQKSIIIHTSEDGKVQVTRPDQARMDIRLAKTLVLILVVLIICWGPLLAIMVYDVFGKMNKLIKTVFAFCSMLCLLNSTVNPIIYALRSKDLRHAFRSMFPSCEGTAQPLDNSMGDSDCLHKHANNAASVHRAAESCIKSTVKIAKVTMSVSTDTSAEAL
TRPV-1, sequence (Q8NER1 whole entry): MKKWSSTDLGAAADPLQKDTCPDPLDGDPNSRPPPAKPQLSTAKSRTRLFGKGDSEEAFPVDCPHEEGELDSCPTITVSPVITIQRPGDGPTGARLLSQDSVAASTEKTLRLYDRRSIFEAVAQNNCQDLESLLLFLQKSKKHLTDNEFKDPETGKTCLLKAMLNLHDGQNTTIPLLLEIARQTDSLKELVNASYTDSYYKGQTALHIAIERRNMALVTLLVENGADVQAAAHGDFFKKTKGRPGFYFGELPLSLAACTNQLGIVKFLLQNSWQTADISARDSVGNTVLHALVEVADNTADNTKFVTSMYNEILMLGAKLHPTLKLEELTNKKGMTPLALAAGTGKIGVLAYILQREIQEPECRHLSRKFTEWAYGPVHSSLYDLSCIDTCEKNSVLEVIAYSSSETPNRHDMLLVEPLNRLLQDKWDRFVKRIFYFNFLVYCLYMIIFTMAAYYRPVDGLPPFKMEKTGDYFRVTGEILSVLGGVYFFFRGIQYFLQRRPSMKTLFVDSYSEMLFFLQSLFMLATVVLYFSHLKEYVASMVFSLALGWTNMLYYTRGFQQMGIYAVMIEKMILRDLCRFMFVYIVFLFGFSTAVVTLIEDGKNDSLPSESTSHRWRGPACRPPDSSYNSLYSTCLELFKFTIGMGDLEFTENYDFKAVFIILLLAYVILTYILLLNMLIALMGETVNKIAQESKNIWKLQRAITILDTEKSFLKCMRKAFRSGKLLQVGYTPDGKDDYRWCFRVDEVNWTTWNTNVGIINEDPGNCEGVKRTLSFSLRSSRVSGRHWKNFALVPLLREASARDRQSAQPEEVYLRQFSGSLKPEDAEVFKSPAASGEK

For the compound `C=C(C)[C@@H]1CCC(C)=C[C@H]1c1c(O)cc(CCCCC)cc1O` [(-)CBD, 2-[(1R,6R)-3-methyl-6-prop-1-en-2-ylcyclohex-2-en-1-yl]-5-pentylbenzene-1,3-diol], the CB1 antagonistic activity entry at human CB1 was “clear CB1 antagonistic activity”. Further, in the data set on α-SMA, the “expression α-SMA protein induced by TGFβ” value is on record as “attenuated”. In the data set on BLM-induced fibrosis (setting [1]), the dermal thickness result is “attenuated” and the “loss of adipose tissue layer induced by BLM” value is “not were able to recover”. In addition, the “piloerection, hunched appearances” value in the data set on BLM-induced fibrosis (during the experimental procedures, 20 mg/kg i.p. daily) is on record as “Neither piloerection nor hunched appearances were appreciated”. The behavioral changes result with BLM-induced fibrosis (during the protocols, 20 mg/kg i.p. daily) is “No behavioral changes”. Also, the Mice weight result with BLM-induced fibrosis (evaluated weekly, between experimental groups, 20 mg/kg i.p. daily) is “no significant changes”. In the data set with BLM-induced fibrosis (immunostaining, versus BLM untreated mice, 20 mg/kg i.p., Figure 10), the “infiltration of F4/80^+ macrophages” value is “significantly reduced”. In addition, in the data set with BLM-induced fibrosis (toluidine blue, BLM 3 weeks, 20 mg/kg i.p., Figure 9), the “number of degranulated mast cells in the lesioned skin” value was “prevented”. The anandamide hydrolysis result in the data set with anandamide hydrolysis is given as “inhibited”. The capsaicin-induced calcium mobilization result at TRPV-1 is reported as “prevent capsaicin-induced calcium mobilization”.
On to `C=C(C)[C@H]1CCC(C)=C[C@@H]1c1c(O)cc(CCCCC)cc1O` [(+)CBD, (+)Cannabidiol], for which the CB1 antagonistic activity result on human CB1 is “clear CB1 antagonistic activity”. For the same compound, the “expression α-SMA protein induced by TGFβ” value in the data set on α-SMA is given as “attenuated”. Moreover, in the data set on anandamide hydrolysis, the anandamide hydrolysis result was “inhibited”.

(Values after patent publication EP3643303A1, “COMPOUNDS FOR USE IN THE TREATMENT OR PREVENTION OF FIBROTIC DISEASES; PHARMACEUTICAL, COSMETIC COMPOSITIONS AND USES THEREOF” (InnovativeHealth Group SL, priority 2018, dated 2020).)
